From ChEMBL document CHEMBL1201862, “PubChem BioAssay data set” (2004)
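Grown in 96-well plates, cells were treated for 48 hours with each compound at five concentrations. Insufficient inhibition: endpoint recorded as highest concentration tested. GI50: concentration for 50% inhibition of growth.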 Calls of active or inactive are those of the source. Cut-off read from the data, not from the text of the source: active = GI50 up to about 1.1 µM and inactive = higher. Peptide text beside a SMILES is read from it. * marks the point of attachment. Cbz = O=C(OCc1ccccc1)*; OBn = c1ccc(CO*)cc1

Tests used:
Assay in all cases: inhibition of tumour cell growth, NCI panel, 48 h
[1] = test system: ACHN
[2] = test system: CAKI-1
[3] = test system: COLO 205
[4] = test system: HCC 2998
[5] = test system: HOP-62
[6] = test system: IGROV-1
[7] = test system: LOX IMVI
[8] = test system: MCF7
[9] = test system: MDA-N
[10] = test system: NCI-H23
[11] = test system: OVCAR-5
[12] = test system: RPMI-8226
[13] = test system: SF-295
[14] = test system: SK-MEL-28
[15] = test system: SNB-19
[16] = test system: SNB-75
[17] = test system: SR
[18] = test system: U-251
[19] = test system: HL-60

Structure (SMILES)	GI50 [1]	GI50 [2]	GI50 [3]	GI50 [4]	GI50 [5]	GI50 [6]	GI50 [7]	GI50 [8]	GI50 [9]	GI50 [10]	GI50 [11]	GI50 [12]	GI50 [13]	GI50 [14]	GI50 [15]	GI50 [16]	GI50 [17]	GI50 [18]	GI50 [19]
CCOC(=O)C12C3CCC1C2C(=O)C3 (stereo not given)	> 100 µM (inactive)	> 100 µM (inactive)	> 100 µM (inactive)	> 100 µM (inactive)	> 100 µM (inactive)	> 100 µM (inactive)	> 100 µM (inactive)	> 100 µM (inactive)	> 100 µM (inactive)	> 100 µM (inactive)	> 100 µM (inactive)	> 100 µM (inactive)	> 100 µM (inactive)	> 100 µM (inactive)	> 100 µM (inactive)	> 100 µM (inactive)	> 100 µM (inactive)	> 100 µM (inactive)	
COC(=O)/C=C1/CCC(C)(C(=O)NS(=O)(=O)c2ccc(C)cc2)C1(C)C (stereo not given)	> 100 µM (inactive)	> 100 µM (inactive)	> 100 µM (inactive)	> 100 µM (inactive)	> 100 µM (inactive)	> 100 µM (inactive)	> 100 µM (inactive)	> 100 µM (inactive)	> 100 µM (inactive)	> 100 µM (inactive)	> 100 µM (inactive)	> 100 µM (inactive)	> 100 µM (inactive)	> 100 µM (inactive)	> 100 µM (inactive)			> 100 µM (inactive)	> 100 µM (inactive)
O=C1Oc2ccccc2C(=O)/C1=C/N1C(=O)N/C(=C\c2cccc(O)c2)C1=O	20.7 µM (inactive)	41 µM (inactive)	> 100 µM (inactive)	55.7 µM (inactive)	69.7 µM (inactive)	31.3 µM (inactive)	> 100 µM (inactive)	> 100 µM (inactive)	63.8 µM (inactive)	84.9 µM (inactive)	> 100 µM (inactive)		67.3 µM (inactive)	> 100 µM (inactive)	45.3 µM (inactive)	8.36 µM (inactive)		> 100 µM (inactive)	6.87 µM (inactive)
CC(=O)Oc1ccc2c(c1)[nH]c1c3ccc(OC(C)=O)cc3oc(=O)c21	27 µM (inactive)	52.4 µM (inactive)	30.7 µM (inactive)	26.5 µM (inactive)	29.3 µM (inactive)	39 µM (inactive)		24.9 µM (inactive)	33.3 µM (inactive)	36.1 µM (inactive)	> 100 µM (inactive)		44.1 µM (inactive)	38 µM (inactive)	23.9 µM (inactive)	51.6 µM (inactive)	22.8 µM (inactive)	30.5 µM (inactive)	
COC(=O)[C@]1(NC(=O)c2ccccc2)C[C@H]1C=O	> 100 µM (inactive)	> 100 µM (inactive)	> 100 µM (inactive)	57.7 µM (inactive)	> 100 µM (inactive)	> 100 µM (inactive)	98.6 µM (inactive)	> 100 µM (inactive)	> 100 µM (inactive)	> 100 µM (inactive)	> 100 µM (inactive)	> 100 µM (inactive)	> 78.5 µM (inactive)	> 100 µM (inactive)	> 100 µM (inactive)	> 42.9 µM (inactive)	28.2 µM (inactive)	> 100 µM (inactive)	
Cc1cc2c(cc1Cl)SC(NN(C)C)=NS2(=O)=O	> 10 µM (inactive)	> 10 µM (inactive)	> 10 µM (inactive)	> 10 µM (inactive)	> 10 µM (inactive)	> 10 µM (inactive)	> 10 µM (inactive)	> 10 µM (inactive)	> 10 µM (inactive)	> 10 µM (inactive)	> 10 µM (inactive)	> 10 µM (inactive)	> 10 µM (inactive)	> 10 µM (inactive)	> 10 µM (inactive)	> 10 µM (inactive)		> 10 µM (inactive)	> 10 µM (inactive)
CCOC(=O)/C=C(/C(=O)OCC)n1ccc(=O)n(Cc2cn(COCCOC(C)=O)nn2)c1=O	14.8 µM (inactive)	4.74 µM (inactive)	4.91 µM (inactive)	17.8 µM (inactive)	> 100 µM (inactive)	18 µM (inactive)	20.9 µM (inactive)	15 µM (inactive)	50 µM (inactive)	20.7 µM (inactive)	20.1 µM (inactive)	19.5 µM (inactive)	> 100 µM (inactive)	16.3 µM (inactive)	70.5 µM (inactive)	33 µM (inactive)	19.4 µM (inactive)	28 µM (inactive)	
N#Cc1nc(Cc2ccccc2)oc1N	> 100 µM (inactive)	> 100 µM (inactive)	> 100 µM (inactive)		> 100 µM (inactive)	> 100 µM (inactive)	> 100 µM (inactive)	> 100 µM (inactive)	> 100 µM (inactive)	> 100 µM (inactive)	> 100 µM (inactive)	16.9 µM (inactive)	> 100 µM (inactive)	> 100 µM (inactive)	38.7 µM (inactive)		> 100 µM (inactive)	> 100 µM (inactive)	
O=C1c2cc([N+](=O)[O-])ccc2NC2C(O)c3ccccc3N12 (stereo not given)	24.7 µM (inactive)	21.6 µM (inactive)	61.8 µM (inactive)	47.9 µM (inactive)	30.1 µM (inactive)	24.9 µM (inactive)	43.8 µM (inactive)	17.3 µM (inactive)	69.5 µM (inactive)	24.3 µM (inactive)	> 100 µM (inactive)	18.5 µM (inactive)	30.1 µM (inactive)		29 µM (inactive)	20.2 µM (inactive)	19.3 µM (inactive)	23.5 µM (inactive)	
Cc1cc(OP2(=O)NCc3ncccc3O2)ccc1Cl (stereo not given)	> 100 µM (inactive)	> 100 µM (inactive)	> 100 µM (inactive)	40.6 µM (inactive)	> 100 µM (inactive)	> 100 µM (inactive)	> 100 µM (inactive)	> 100 µM (inactive)	> 100 µM (inactive)	> 100 µM (inactive)	> 100 µM (inactive)	> 100 µM (inactive)	> 100 µM (inactive)	> 100 µM (inactive)	> 100 µM (inactive)	> 100 µM (inactive)	> 100 µM (inactive)	> 100 µM (inactive)	
C#Cc1cc(Br)c(OC(=O)C(C)(C)C)c(-c2cc(C#C)cc(Br)c2OC(=O)C(C)(C)C)c1	21.4 µM (inactive)	61.8 µM (inactive)	31 µM (inactive)	24.4 µM (inactive)	55.6 µM (inactive)	76.9 µM (inactive)	19.7 µM (inactive)	26.7 µM (inactive)	31.8 µM (inactive)	30.5 µM (inactive)	21.2 µM (inactive)	12.5 µM (inactive)	30.5 µM (inactive)	61.2 µM (inactive)	43.9 µM (inactive)			45.1 µM (inactive)	6.98 µM (inactive)
Cc1ccc(C)c(NC(=O)C(=O)C2C(=O)C3=C(CC2(C)C)Nc2ccccc2S3)c1 (stereo not given)	> 100 µM (inactive)	> 100 µM (inactive)	> 100 µM (inactive)	> 100 µM (inactive)	31.6 µM (inactive)	69.7 µM (inactive)	> 100 µM (inactive)	> 100 µM (inactive)	> 100 µM (inactive)	> 100 µM (inactive)	> 100 µM (inactive)		58.9 µM (inactive)	> 100 µM (inactive)	> 100 µM (inactive)	29.4 µM (inactive)		87.9 µM (inactive)	> 100 µM (inactive)
COC[C@@H](C[C@H]1O[C@@](O)([C@H](O)[C@@H]2C[C@H](OC)[C@@H](O)CC/C=C(C)/C=C/[C@@H](O[C@@H]3O[C@@H](C)[C@H](OC)[C@@H](O)[C@@H]3O)[C@H](C)/C=C(C)/C=C(C)/C=C(\C)C(=O)O2)[C@H](C)[C@@H](O)[C@H]1C)O[C@H]1C[C@](C)(O)[C@@H](O[C@H]2C[C@@H](OC)[C@H](O)[C@@H](C)O2)C(C)O1 (stereo not given in full)	96.4 µM (inactive)	> 100 µM (inactive)	0.221 µM (active)	> 80.2 µM (inactive)		> 100 µM (inactive)	46.5 µM (inactive)	0.0785 µM (active)	> 100 µM (inactive)	0.0532 µM (active)	> 100 µM (inactive)	86.5 µM (inactive)	0.857 µM (active)	> 67.8 µM (inactive)				0.0628 µM (active)	0.869 µM (active)
NCC(O)CSCc1ccc(Cl)cc1 (stereo not given)	> 100 µM (inactive)	> 100 µM (inactive)	> 100 µM (inactive)	> 100 µM (inactive)	> 100 µM (inactive)	> 100 µM (inactive)	> 100 µM (inactive)	> 100 µM (inactive)	> 100 µM (inactive)	> 100 µM (inactive)	> 100 µM (inactive)	> 100 µM (inactive)	> 100 µM (inactive)	> 100 µM (inactive)	> 100 µM (inactive)			> 100 µM (inactive)	> 100 µM (inactive)
COC(=O)CNC(=O)C(C)NC(=O)C(CC(=O)OCc1ccccc1)NC(=O)OCc1ccccc1 (stereo not drawn) (Cbz-Asp(OBn)-Ala-Gly-OMe; configuration not given here)		79.8 µM (inactive)	38.4 µM (inactive)	32.9 µM (inactive)	> 100 µM (inactive)	> 100 µM (inactive)		55.7 µM (inactive)	53.6 µM (inactive)	36.6 µM (inactive)	39.4 µM (inactive)	39 µM (inactive)	33.3 µM (inactive)	80.2 µM (inactive)	57.3 µM (inactive)	72.1 µM (inactive)	35.5 µM (inactive)	47 µM (inactive)	
